Test results reported in patent US20250313533A1, “QUINOLINE CARBOXYLIC ACID ESTER COMPOUND AND PREPARATION METHOD AND USE THEREOF” (priority 2019, published 2025).

How the values were obtained:
[1] = test system: soft rot in Chinese cabbages; experiment: whole plant or invertebrate; conditions: 48 h, read-out: efficacy against soft rot in Chinese cabbages
bacterial blight in rice = experiment: whole plant or invertebrate; conditions: Oryza sativa, read-out: efficacy against bacterial blight in rice
[2] = test system: indoor potted cucumber seedlings; experiment: Effect of improving growth and development of crops; type: in vivo; parameters: Rate of growth rate increase (%): concentration or dose not given beside the values; conditions: versus blank control; for Rate of chlorophyll content increase (%) / Rate of leaf area increase (%): 14 days after application; for Rate of growth rate increase (%): plant height 14 days after application; for Rate of leaf area increase (%): second leaf
How it was run: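 Readouts: rate of increase in height growth, leaf area and SPAD chlorophyll content. Measurements were made before compound application and again 14 days afterwards, with leaf area computed from second-leaf dimensions.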

[3] = test system: pathogenic bacteria causing bacterial wilt in tobacco; experiment: whole plant or invertebrate; type: cell-based, ralstonia; conditions: read-out: inhibitory rate
[4] = test system: pathogenic bacteria causing fruit blotch in watermelons; experiment: In vitro bactericidal activity, fruit blotch in watermelons; type: cell-based, acidovorax; conditions: read-out: inhibitory rate; for inhibition at 1 ppm: dosage 1 ppm; for inhibition at 5 ppm: dosage 5 ppm
[5] = test system: pathogenic bacteria causing stem rot in sweet potatoes; experiment: In vitro bactericidal activity, stem rot in sweet potatoes; type: cell-based, dikia; conditions: read-out: inhibitory rate; for inhibition at 1 ppm: dosage 1 ppm; for inhibition at 5 ppm: dosage 5 ppm
[6] = test system: pathogenic bacteria causing bacterial angular leaf spot in cucumbers; experiment: In vitro bactericidal activity, bacterial angular leaf spot in cucumbers; type: cell-based, pseudomonas; conditions: read-out: inhibitory rate; for inhibition at 1 ppm: dosage 1 ppm; for inhibition at 5 ppm: dosage 5 ppm
[7] = test system: pathogenic bacteria causing bacterial wilt in cassava; experiment: organism not typed; type: cell-based; conditions: read-out: inhibitory rate
[8] = test system: pathogenic bacteria causing black shank in potatoes; experiment: In vitro bactericidal activity, black shank in potatoes; type: cell-based; conditions: read-out: inhibitory rate; for inhibition at 1 ppm: dosage 1 ppm; for inhibition at 5 ppm: dosage 5 ppm
[9] = test system: stem rot in sweet potatoes; experiment: whole plant or invertebrate; conditions: read-out: efficacy against stem rot in sweet potatoes
cucumber seedlings = experiment: Safety for plant growth after application; type: in vivo; conditions: dosage 200 ppm
How it was run: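 Using pot-grown cucumber seedlings indoors, we recorded plant height growth rate together with chlorophyll content and leaf area following compound application.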

[10] = test system: pathogenic bacteria causing fire blight in pears; experiment: In vitro bactericidal activity, fire blight in pears; type: cell-based, erwinia; conditions: Erwinia, read-out: inhibitory rate; for inhibition at 1 ppm: dosage 1 ppm; for inhibition at 5 ppm: dosage 5 ppm
[11] = test system: fruit blotch in watermelons; experiment: whole plant or invertebrate; conditions: read-out: efficacy against fruit blotch in watermelons
[12] = test system: pathogenic bacteria causing black rot in Chinese cabbages; experiment: In vitro bactericidal activity, black rot in Chinese cabbages; type: cell-based, xanthomonas; conditions: Xanthomonas, read-out: inhibitory rate; for inhibition at 1 ppm: dosage 1 ppm; for inhibition at 5 ppm: dosage 5 ppm
[13] = test system: pathogenic bacteria causing bacterial blight in rice; experiment: whole plant or invertebrate; type: cell-based, xanthomonas; conditions: read-out: inhibitory rate
black shank in potatoes = experiment: Living crops in vivo protective activity, potatoes (root irrigation); conditions: Solanum tuberosum, read-out: efficacy against black shank in potatoes; for pest or weed control at 5 ppm: dosage 5 ppm; for pest or weed control at 10 ppm: dosage 10 ppm
Procedure: Root irrigation was carried out on the potatoes for tests according to the designed concentration of the agents. The dosage for each plant was 200 mL and was kept consistent (also for the control). The black shank bacteria were inoculated on the second day after the application. The results were investigated according to the disease condition.

[14] = test system: bacterial wilt in tobacco; experiment: whole plant or invertebrate; conditions: Nicotiana tabacum, read-out: efficacy against bacterial wilt in tobacco

Row | SMILES | pest or weed control at 5 ppm [1] [%] | pest or weed control at 10 ppm [1] [%] | pest or weed control at 5 ppm (bacterial blight in rice) [%] | pest or weed control at 10 ppm (bacterial blight in rice) [%] | Rate of chlorophyll content increase (%) [2] [%] | Rate of growth rate increase (%) [2] [%] | Rate of leaf area increase (%) [2] [%] | inhibition at 1 ppm [3] [%] | inhibition at 5 ppm [3] [%] | inhibition at 1 ppm [4] [%] | inhibition at 5 ppm [4] [%] | inhibition at 1 ppm [5] [%] | inhibition at 5 ppm [5] [%] | inhibition at 1 ppm [6] [%] | inhibition at 5 ppm [6] [%] | inhibition at 1 ppm [7] [%] | inhibition at 5 ppm [7] [%] | inhibition at 1 ppm [8] [%] | inhibition at 5 ppm [8] [%] | pest or weed control at 5 ppm [9] [%] | further results
1 | COCCOC(=O)c1cn(C2CC2)c2cc(N(C)C)c(F)cc2c1=O [Compound 414] | ≥ 90 | ≥ 90 | ≥ 90 | ≥ 90 | 15 | 12 | 18 | ≥ 90 | ≥ 90 | ≥ 90 | ≥ 90 | ≥ 90 | ≥ 90 | ≥ 90 | ≥ 90 | ≥ 90 | ≥ 90 | ≥ 90 | ≥ 90 | ≥ 90 | pest or weed control at 10 ppm [9]: ≥ 90%; safety for plant growth (discoloration, necrosis, wilt, malformation) (cucumber seedlings): safe for plant growth; inhibition at 1 ppm [10]: ≥ 90%; inhibition at 5 ppm [10]: ≥ 90%; pest or weed control at 5 ppm [11]: ≥ 90%; pest or weed control at 10 ppm [11]: ≥ 90%; inhibition at 1 ppm [12]: ≥ 90%; inhibition at 5 ppm [12]: ≥ 90%; inhibition at 1 ppm [13]: ≥ 90%; inhibition at 5 ppm [13]: ≥ 90%; pest or weed control at 5 ppm (black shank in potatoes): ≥ 90%; pest or weed control at 10 ppm (black shank in potatoes): ≥ 90%; pest or weed control at 5 ppm [14]: ≥ 90%; pest or weed control at 10 ppm [14]: ≥ 90%
2 | COCCOC(=O)c1cn(C2CC2)c2cc(OC)c(F)cc2c1=O [Compound 281] | ≥ 90 | ≥ 90 | ≥ 90 | ≥ 90 | 16 | 13 | 13 | ≥ 90 | ≥ 90 | ≥ 90 | ≥ 90 | ≥ 90 | ≥ 90 | ≥ 90 | ≥ 90 | ≥ 90 | ≥ 90 | ≥ 90 | ≥ 90 | ≥ 90 | pest or weed control at 10 ppm [9]: ≥ 90%; safety for plant growth (discoloration, necrosis, wilt, malformation) (cucumber seedlings): safe for plant growth; inhibition at 1 ppm [10]: ≥ 90%; inhibition at 5 ppm [10]: ≥ 90%; pest or weed control at 5 ppm [11]: ≥ 90%; pest or weed control at 10 ppm [11]: ≥ 90%; inhibition at 1 ppm [12]: ≥ 90%; inhibition at 5 ppm [12]: ≥ 90%; inhibition at 1 ppm [13]: ≥ 90%; inhibition at 5 ppm [13]: ≥ 90%; pest or weed control at 5 ppm (black shank in potatoes): ≥ 90%; pest or weed control at 10 ppm (black shank in potatoes): ≥ 90%; pest or weed control at 5 ppm [14]: ≥ 90%; pest or weed control at 10 ppm [14]: ≥ 90%
3 | COCCCOC(=O)c1cn(C2CC2)c2cc(F)ccc2c1=O [Compound 208] | ≥ 90 | ≥ 90 | ≥ 90 | ≥ 90 | 12 | 5 | 11 | ≥ 90 | ≥ 90 | ≥ 90 | ≥ 90 | ≥ 90 | ≥ 90 | ≥ 90 | ≥ 90 | ≥ 90 | ≥ 90 | ≥ 90 | ≥ 90 | ≥ 90 | pest or weed control at 10 ppm [9]: ≥ 90%; safety for plant growth (discoloration, necrosis, wilt, malformation) (cucumber seedlings): safe for plant growth; inhibition at 1 ppm [10]: ≥ 90%; inhibition at 5 ppm [10]: ≥ 90%; pest or weed control at 5 ppm [11]: ≥ 90%; pest or weed control at 10 ppm [11]: ≥ 90%; inhibition at 1 ppm [12]: ≥ 90%; inhibition at 5 ppm [12]: ≥ 90%; inhibition at 1 ppm [13]: ≥ 90%; inhibition at 5 ppm [13]: ≥ 90%; pest or weed control at 5 ppm (black shank in potatoes): ≥ 90%; pest or weed control at 10 ppm (black shank in potatoes): ≥ 90%; pest or weed control at 5 ppm [14]: ≥ 90%; pest or weed control at 10 ppm [14]: ≥ 90%
4 | COCOC(=O)c1cn(C2CC2)c2cc(Cl)c(F)cc2c1=O [Compound 143] | ≥ 80 | ≥ 90 | ≥ 80 | ≥ 90 | 11 | 8 | 15 | ≥ 80 | ≥ 90 | ≥ 80 | ≥ 90 | ≥ 80 | ≥ 90 | ≥ 80 | ≥ 90 | ≥ 80 | ≥ 90 | ≥ 80 | ≥ 90 | ≥ 90 | pest or weed control at 10 ppm [9]: ≥ 90%; safety for plant growth (discoloration, necrosis, wilt, malformation) (cucumber seedlings): safe for plant growth; inhibition at 1 ppm [10]: ≥ 80%; inhibition at 5 ppm [10]: ≥ 90%; pest or weed control at 5 ppm [11]: ≥ 90%; pest or weed control at 10 ppm [11]: ≥ 90%; inhibition at 1 ppm [12]: ≥ 80%; inhibition at 5 ppm [12]: ≥ 90%; inhibition at 1 ppm [13]: ≥ 80%; inhibition at 5 ppm [13]: ≥ 90%; pest or weed control at 5 ppm (black shank in potatoes): ≥ 80%; pest or weed control at 10 ppm (black shank in potatoes): ≥ 90%; pest or weed control at 5 ppm [14]: ≥ 90%; pest or weed control at 10 ppm [14]: ≥ 90%
5 | CCOc1cc2c(cc1F)c(=O)c(C(=O)OCCOC1CCCC1)cn2C1CC1 [Compound 307] | ≥ 90 | ≥ 90 | ≥ 90 | ≥ 90 | 11 | 9 | 12 | ≥ 90 | ≥ 90 | ≥ 90 | ≥ 90 | ≥ 90 | ≥ 90 | ≥ 90 | ≥ 90 | ≥ 90 | ≥ 90 | ≥ 90 | ≥ 90 | ≥ 90 | pest or weed control at 10 ppm [9]: ≥ 90%; safety for plant growth (discoloration, necrosis, wilt, malformation) (cucumber seedlings): safe for plant growth; inhibition at 1 ppm [10]: ≥ 90%; inhibition at 5 ppm [10]: ≥ 90%; pest or weed control at 5 ppm [11]: ≥ 90%; pest or weed control at 10 ppm [11]: ≥ 90%; inhibition at 1 ppm [12]: ≥ 90%; inhibition at 5 ppm [12]: ≥ 90%; inhibition at 1 ppm [13]: ≥ 90%; inhibition at 5 ppm [13]: ≥ 90%; pest or weed control at 5 ppm (black shank in potatoes): ≥ 90%; pest or weed control at 10 ppm (black shank in potatoes): ≥ 90%; pest or weed control at 5 ppm [14]: ≥ 90%; pest or weed control at 10 ppm [14]: ≥ 90%
6 | CCOc1cc2c(cc1F)c(=O)c(C(=O)OCCO)cn2C1CC1 [Compound 265] | ≥ 90 | ≥ 90 | ≥ 90 | ≥ 90 | 13 | 12 | 15 | ≥ 90 | ≥ 90 | ≥ 90 | ≥ 90 | ≥ 90 | ≥ 90 | ≥ 90 | ≥ 90 | ≥ 90 | ≥ 90 | ≥ 90 | ≥ 90 | ≥ 90 | pest or weed control at 10 ppm [9]: ≥ 90%; safety for plant growth (discoloration, necrosis, wilt, malformation) (cucumber seedlings): safe for plant growth; inhibition at 1 ppm [10]: ≥ 90%; inhibition at 5 ppm [10]: ≥ 90%; pest or weed control at 5 ppm [11]: ≥ 90%; pest or weed control at 10 ppm [11]: ≥ 90%; inhibition at 1 ppm [12]: ≥ 90%; inhibition at 5 ppm [12]: ≥ 90%; inhibition at 1 ppm [13]: ≥ 90%; inhibition at 5 ppm [13]: ≥ 90%; pest or weed control at 5 ppm (black shank in potatoes): ≥ 90%; pest or weed control at 10 ppm (black shank in potatoes): ≥ 90%; pest or weed control at 5 ppm [14]: ≥ 90%; pest or weed control at 10 ppm [14]: ≥ 90%
